In assay [1] the test system is HCT-116. Briefly: MTT cytotoxicity assay, colon cancer cells. It counts as cell-based, human. The conditions noted are these: for IC50: Homo sapiens, HCT-116, MTT, 48 hrs incubation. How it is done:
(§1) The cytotoxic activity of the compounds was tested against different mammalian cancer cells, prostate carcinoma cells (PC-3), hepatocellular carcinoma (HepG2) and colon cancer cells (HCT-116) and against African green monkey kidney cell line (Vero-B). The cell lines were obtained from American Type Culture Collection (ATCC). The cells were cultivated at 37° C. and 10% CO2 in DMEM (Lonza, 12-604F) medium supplemented with 10% fetal bovine serum (FBS, Lonza, Cat. No. 14-801E), 100 IU/ml penicillin and 100 μg/ml streptomycin (Lonza, 17-602E). Cisplatin (cis-diamineplatinum (II) dichloride) was used as a positive control and was obtained from Sigma then dissolved in 0.9% saline then stored as 8 mM stock solution at −20° C. The synthesized compounds were solubilized in DMSO and stored at −20° C. 0.5% crystal violet was prepared in Methanol and was used to stain the viable cells (Feoktistova, Geserick et al. 2016). Crystal violet binds to proteins and DNA in the adherent and viable cells so the stain is an indicator for the viability of the treated cells. The viability of the cells were quantified by using MTT reagent (3-(4,5-dimethylthiazol-2-yl)-2,5-diphenyl tetrazolium bromide), which measure the activity of mitochondrial dehydrogenase in the viable cells (Slater, Sawyer et al. 1963, Mosmann 1983).
(§2) Cytotoxicity was further assayed as follows. The cells were seeded in 96-well plate as 5*10^4 cells/mL (100 μL/well). A serial dilutions of tested compounds or cisplatin (100, 30, 10, 3.3, 1.1 or 0.37 μM) was added after overnight incubation of the cells at 37° C. and 5% CO2. DMSO was used as a control (0.1%). The cells were incubated for 48 hrs. After that, 15 μl of MTT (5 mg/mL PBS) was added to each well and incubated for another 4 hours. The formazan crystals were solubilized by 100 μL acidified SDS solution (10% SDS/0.01 M HCl). The absorbance was measured after 14 hours of incubation at 37° C. and 5% CO2 at 570 nm by Biotech plate reader. Each experiment was repeated three times and standard deviation was calculated (±). IC50% was calculated as the concentration that cause 50% inhibition for cell growth. The growth of the cells were monitored and the images were acquired by Gx microscopes (GXMGXD202 Inverted Microscope) (10× Eyepiece) after staining with crystal violet.
For orientation: Formazan colour is commonly taken as a measure of viable cells.

The subject of another assay is HepG2. Briefly: MTT cytotoxicity assay, hepatocellular carcinoma cells. The class given is cell-based, human. The settings on record: for IC50: Homo sapiens, HepG2, MTT, 48 hrs incubation. How it is done:
as §1, §2

In another assay the test system is PC-3. Briefly: MTT cytotoxicity assay, prostate carcinoma cells. The settings on record: for IC50: Homo sapiens, PC-3, MTT, 48 hrs incubation. It counts as cell-based, human. How it is done: as §1, §2
The next assay concerns Vero-B. Briefly: MTT cytotoxicity assay, normal kidney cell line. It counts as cell-based, African green monkey. The settings on record: Chlorocebus sabaeus, Vero B; Table 1; MTT, 48 hrs incubation; read-out: VERO-B (IC50% μM). Here is the method:
as §1, §2

In assay [2] the test system is HCT-116 cells. The experiment in a line: Colony forming assay. It counts as cell-based, human. The conditions noted are these: HCT-116, 2 μM (method) / 1 μM (result sentence), 10 days, vs DMSO control. Here is the method: HCT-116 cells were seeded in 35 mm cell culture dish (500 cells/ml, 2 ml/dish). After overnight incubation at 37° C. and 5% CO2, the medium was replaced with fresh medium containing either DMSO or 2 μM of 4d. The dishes were returned into the incubator and watched for the formation of single colonies. After 10 days, the experiment was stopped by washing the colonies by ice-cold 1×-PBS and fixed with ice-cold methanol. The colonies were left to air dry, then stained with 0.5% crystal violet. The excess stain was washed off by tap water. The colonies were counted by Gx microscopes (GXMGXD202 Inverted Microscope) (10× Eyepiece) and images were processed by ImageJ 1.47v. The effect of compound 4d on the colony formation of colon cancer cells was evaluated by incubating the cells with 1 μM. […] This confirms the ability of compound 4d to enhance tumor suppressor activities.

Assay [3] deals with HCT-116 cells. The experiment in a line: Wound-healing assay. The class given is cell-based, human. The conditions noted are these: HCT-116, 1 μM, images at 0, 4, 24 and 48 hours, vs DMSO. Here is the method:
HCT-116 cells were seeded in 6 well plate as 10*10^4 cells per ml (2 ml in each well) and incubated overnight at 37° C. and 5% CO2. On the second day, a scratch was created in each well by using a sterile P200 tip, and then the medium was replaced with fresh medium containing either DMSO or 1 μM of compound 4d. Photomicrograph images were taken at different time points (0, 4, 24 and 48 hours) to monitor the wound closure. After that, the cells were washed two times with ice-cold 1×PBS and fixed with ice-cold methanol for 20 min at 4° C. The fixed cells were washed two times with 1×PBS and stained with 0.5% crystal violet for 30 min. The extra stain was washed off by dH2O until no color in the washing is observed. The images were captured by Gx microscopes (GXMGXD202 Inverted Microscope) (10× Eyepiece) after staining with crystal violet. The size of the wound was measured by using ImageJ 1.47v software. […] This confirms the ability of compound 4d to enhance tumor suppressor activities.

Assay [4] relates to HCT-116. The experiment in a line: Cell cycle analysis (propidium iodide flow cytometry). It counts as cell-based, human. The conditions noted are these: HCT-116, 2 μM, 24 hours. How it is done:
The cells (HCT-116) were seeded 5*10^4 cells/mL in a 6-well plate (2 mL/well) and allowed to adhere overnight at 37° C. and 5% CO2. The cells were incubated with or without 2 μM of compound 4d for 24 hours. The cells were washed twice with ice-cold 1×PBS and collected after trypsinzation. The cell pellet was washed two times with ice-cold 1×PBS and fixed with ice-cold 70% ethanol overnight at −20° C. After that, the cells were washed once with ice-cold PBS and the second wash was done with ice-cold PBS-2% FBS. The cell pellet was re-suspended in 500 μL Propidium Iodide (PI)/RNase (BD Biosciences, BDB550825) staining solution for 15 min at room temperature. The samples were incubated for 15 min in the dark and analyzed within 1 hour by BD Accuri™ C6 Plus flow cytometer. […] The arrest of the cell cycle in subG1 indicates the induction of apoptosis.
(In flow cytometry, cells or beads pass a laser one at a time.)

Like-named read-outs stand apart in the source and are kept apart here.

As to `O=C(/C=C/c1ccc(Cl)cc1Cl)[C@H]1[C@H](c2ccc(Cl)cc2Cl)[C@H]2CSCN2[C@]12C(=O)Nc1ccccc12` [Compound 4d, (3R,6′S,7′R,7a′S)-7′-(2,4-dichlorophenyl)-6′-((E)-3-(2,4-dichlorophenyl)acryloyl)-1′,6′,7′,7a′-tetrahydro-3′H-spiro[indoline-3,5′-pyrrolo[1,2-c]thiazol]-2-one], the IC50 with HCT-116 [1] (read-out: HCT-116 (IC50% μM)) turned out to be 1.4 ± 0.6 µM; in the assay with HCT-116 [1] (read-out: HCT-116 (IC50% μg/ml)), 0.8 µg/mL; in the assay on HepG2 (read-out: HepG2 (IC50% μM)), 0.85 ± 0.2 µM; in the assay on HepG2 (read-out: HepG2 (IC50% μg/ml)) it was 0.5 µg/mL; with PC-3 (read-out: PC-3 (IC50% μM)), 1.8 ± 0.3 µM; in the assay with PC-3 (read-out: PC-3 (IC50% μg/ml)), 1.1 µg/mL. Besides, the IC50 in the assay on Vero-B came to 5 µM. In the assay with HCT-116 [1] (broad spectrum, cancer cells), the “selectivity index to the cancer cells” value is listed as “greater than 2”. The SI in the assay with HepG2 (Selectivity Index from IC50 normal (VERO-B) and IC50 cancer (HepG2)) was 5.882; with PC-3 (Selectivity Index from IC50 normal (VERO-B) and IC50 cancer (PC-3)), 2.778. Also, the formation of colonies result in the assay with HCT-116 cells [2] is on record as “able to inhibit the formation of colonies”. Moreover, the wound closure entry in the assay on HCT-116 cells [3] is “inhibited wound closure”. Also, the “cells arrested in G2/M” value in the assay with HCT-116 [4] is “around 34.5%”. Further, the “cells arrested in subG1” value with HCT-116 [4] is given as about 15.5%.

The values above are taken from US9822128B1, “Substituted spirooxindoles” (KING SAUD UNIVERSITY, priority 2017, dated 2017).
